Experimental data reported in paper PMC2922759 (European journal of pharmacology, 2009).
Several values for one entry are separate records, joined by “and”; a condition that tells them apart may be missing. Equal entries are not always repeated. Entries after “also recorded” stand apart in the source; their conditions may differ.

Tests used:
Sigma (non-selective) = experiment: MDS Pharma Services counterscreen binding; details: Sigma (non-selective, guinea pig); semi-quantitative
[1] = tested on: mechanically-induced cough; experiment: Feline mechanically-induced cough; assay type: in vivo, cat; details: intra-vertebral artery, 0.001–0.3 mg/kg cumulative
Serotonin 5-HT6 = Serotonin 5-HT6 (Homo sapiens, UniProt P50406); experiment: MDS Pharma Services counterscreen binding; details: semi-quantitative
Serotonin 5-HT6, sequence (P50406 whole entry): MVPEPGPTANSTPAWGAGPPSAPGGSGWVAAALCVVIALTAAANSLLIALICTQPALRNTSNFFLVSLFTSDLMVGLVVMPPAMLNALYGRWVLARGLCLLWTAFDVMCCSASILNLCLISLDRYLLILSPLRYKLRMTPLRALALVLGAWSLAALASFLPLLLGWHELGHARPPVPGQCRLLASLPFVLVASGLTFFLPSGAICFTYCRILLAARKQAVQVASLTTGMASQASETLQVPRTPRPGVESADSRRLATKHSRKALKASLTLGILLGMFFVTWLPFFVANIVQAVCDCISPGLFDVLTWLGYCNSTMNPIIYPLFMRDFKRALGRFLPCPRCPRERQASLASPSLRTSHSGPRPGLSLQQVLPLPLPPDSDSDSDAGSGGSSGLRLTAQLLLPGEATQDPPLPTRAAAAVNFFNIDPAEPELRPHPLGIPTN

[2] = tested on: conditioned place preference; experiment: Rat conditioned place preference; assay type: in vivo; details: for conditioned place preference (time spent in drug paired side): SCH 486757 10 mg/kg p.o., amphetamine 3 mg/kg, morphine 10 mg/kg, 4 pairings
capsaicin-induced cough = details: for doses producing significant CNS effects (lethargy, ataxia): guinea pig, in vivo, po
[3] = Pharmacokinetic profile in the dog; assay type: in vivo
[4] = tested on: MDS Pharma enzyme and receptor binding assays (benzodiazepine, bradykinin, dopamine D1/D2/D4, GABA, glutamate, glycine, serotonin, tachykinin); experiment: MDS Pharma Services counterscreen panel, remaining assays; details: tested at 10 μM; active = greater than 50% inhibition
[5] = Pharmacokinetic profile in the guinea pig; assay type: in vivo
[6] = biological target: human KOP opioid receptor (Homo sapiens, UniProt P41145); experiment: Opioid receptor binding, [3H]diprenorphine; details: human KOP in CHO cell membranes, Mean±S.E.M.
human KOP opioid receptor, sequence (P41145 whole entry): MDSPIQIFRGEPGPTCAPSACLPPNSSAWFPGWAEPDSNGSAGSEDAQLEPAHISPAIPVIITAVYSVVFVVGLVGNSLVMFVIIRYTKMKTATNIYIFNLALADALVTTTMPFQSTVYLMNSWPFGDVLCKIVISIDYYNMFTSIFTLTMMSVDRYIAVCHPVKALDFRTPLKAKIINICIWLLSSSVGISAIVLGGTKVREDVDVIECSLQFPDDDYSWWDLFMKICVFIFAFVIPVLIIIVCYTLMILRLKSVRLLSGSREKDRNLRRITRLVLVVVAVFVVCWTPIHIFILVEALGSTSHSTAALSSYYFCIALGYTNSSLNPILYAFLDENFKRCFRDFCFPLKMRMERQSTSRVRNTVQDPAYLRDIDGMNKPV

[7] = General tolerability / overt behavioral effects; assay type: in vivo; details: guinea pig, rat, cat and dogs
Dog NOP receptor = experiment: NOP receptor binding, brain; details: Mean±S.E.M.
[8] = biological target: human DOP opioid receptor (Homo sapiens, UniProt P41143); experiment: Opioid receptor binding, [3H]diprenorphine; details: human DOP in CHO cell membranes, Mean±S.E.M.
human DOP opioid receptor, sequence (P41143 whole entry): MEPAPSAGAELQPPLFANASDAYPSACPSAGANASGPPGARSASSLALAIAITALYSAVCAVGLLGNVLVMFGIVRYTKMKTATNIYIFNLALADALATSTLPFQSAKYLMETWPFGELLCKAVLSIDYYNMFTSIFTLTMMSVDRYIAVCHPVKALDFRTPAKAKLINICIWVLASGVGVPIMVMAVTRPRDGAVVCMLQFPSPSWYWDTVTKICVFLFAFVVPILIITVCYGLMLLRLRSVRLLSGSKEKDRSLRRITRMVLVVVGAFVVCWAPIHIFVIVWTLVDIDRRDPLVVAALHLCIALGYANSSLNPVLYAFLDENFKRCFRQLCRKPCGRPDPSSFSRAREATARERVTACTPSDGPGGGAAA

Cat NOP receptor = experiment: NOP receptor binding, brain; details: Mean±S.E.M.
Dopamine transporter = Dopamine transporter (Homo sapiens, UniProt Q01959); experiment: MDS Pharma Services counterscreen binding; details: semi-quantitative
Dopamine transporter, sequence (Q01959 whole entry): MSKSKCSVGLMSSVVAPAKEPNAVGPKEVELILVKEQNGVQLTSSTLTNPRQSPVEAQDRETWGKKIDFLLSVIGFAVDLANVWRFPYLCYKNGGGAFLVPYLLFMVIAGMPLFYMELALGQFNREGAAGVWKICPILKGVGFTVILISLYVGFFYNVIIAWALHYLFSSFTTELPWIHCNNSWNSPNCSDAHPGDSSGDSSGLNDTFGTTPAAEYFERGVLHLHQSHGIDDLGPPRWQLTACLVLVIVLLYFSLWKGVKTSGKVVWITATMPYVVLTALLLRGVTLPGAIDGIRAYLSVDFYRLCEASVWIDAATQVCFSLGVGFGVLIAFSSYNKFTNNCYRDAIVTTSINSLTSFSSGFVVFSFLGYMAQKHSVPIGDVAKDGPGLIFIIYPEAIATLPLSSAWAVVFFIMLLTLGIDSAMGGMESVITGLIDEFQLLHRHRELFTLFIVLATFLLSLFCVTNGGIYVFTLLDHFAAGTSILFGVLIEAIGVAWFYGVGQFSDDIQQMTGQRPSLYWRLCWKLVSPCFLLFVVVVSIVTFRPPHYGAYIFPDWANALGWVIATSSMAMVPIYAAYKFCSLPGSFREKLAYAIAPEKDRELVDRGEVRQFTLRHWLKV

Guinea pig NOP receptor = Guinea pig NOP receptor (Cavia porcellus, UniProt P47748); experiment: NOP receptor binding, brain; details: guinea pig brain (cortex); Mean±S.E.M.
Guinea pig NOP receptor, sequence (P47748 whole entry): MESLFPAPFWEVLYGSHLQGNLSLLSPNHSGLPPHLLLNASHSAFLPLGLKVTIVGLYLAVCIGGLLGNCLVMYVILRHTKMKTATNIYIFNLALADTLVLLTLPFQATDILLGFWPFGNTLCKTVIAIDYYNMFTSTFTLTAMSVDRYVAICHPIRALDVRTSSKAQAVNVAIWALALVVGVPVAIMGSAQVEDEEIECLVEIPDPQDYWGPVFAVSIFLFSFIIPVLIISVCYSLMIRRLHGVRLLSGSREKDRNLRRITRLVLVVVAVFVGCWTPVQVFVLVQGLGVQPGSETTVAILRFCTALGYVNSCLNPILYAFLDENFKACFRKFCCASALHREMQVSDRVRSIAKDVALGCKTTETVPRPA

[9] = Safety pharmacology rat studies; assay type: in vivo; details: oral doses up to 30 mg/kg, data not shown
Dopamine D3 = Dopamine D3 (Homo sapiens, UniProt P35462); experiment: MDS Pharma Services counterscreen binding; details: semi-quantitative
Dopamine D3, sequence (P35462 whole entry): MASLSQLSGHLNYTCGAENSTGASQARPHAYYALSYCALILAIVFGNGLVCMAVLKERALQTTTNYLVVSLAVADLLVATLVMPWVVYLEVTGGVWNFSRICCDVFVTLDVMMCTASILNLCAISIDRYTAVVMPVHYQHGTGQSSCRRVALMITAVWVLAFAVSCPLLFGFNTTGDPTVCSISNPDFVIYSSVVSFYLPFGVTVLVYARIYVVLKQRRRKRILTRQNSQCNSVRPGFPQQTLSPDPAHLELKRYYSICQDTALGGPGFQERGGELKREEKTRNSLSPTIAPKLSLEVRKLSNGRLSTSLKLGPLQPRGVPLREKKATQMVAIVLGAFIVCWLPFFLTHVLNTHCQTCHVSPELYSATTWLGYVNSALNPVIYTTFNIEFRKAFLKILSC

[10] = Pharmacokinetic profile in the rat; assay type: in vivo; details: 10 mg/kg p.o.
Rat NOP receptor = Rat NOP receptor (Rattus norvegicus, UniProt P35370); experiment: NOP receptor binding, clone; details: rat clone (CHO cells); Mean±S.E.M.
Rat NOP receptor, sequence (P35370 whole entry): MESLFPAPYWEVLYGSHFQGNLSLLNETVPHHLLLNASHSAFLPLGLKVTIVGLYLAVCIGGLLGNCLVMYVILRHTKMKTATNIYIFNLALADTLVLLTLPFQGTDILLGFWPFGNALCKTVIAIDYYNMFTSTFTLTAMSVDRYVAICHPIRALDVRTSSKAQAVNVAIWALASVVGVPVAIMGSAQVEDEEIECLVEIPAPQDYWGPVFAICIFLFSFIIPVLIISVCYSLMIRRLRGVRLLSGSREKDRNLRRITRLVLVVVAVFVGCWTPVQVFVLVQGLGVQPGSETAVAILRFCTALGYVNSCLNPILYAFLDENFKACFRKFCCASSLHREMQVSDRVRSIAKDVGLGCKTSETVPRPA

Sodium channel, site 2 = experiment: MDS Pharma Services counterscreen binding; details: site 2 (rat), semi-quantitative

## OC1(c2ncccn2)CC2CCC(C1)N2C(c1ccccc1Cl)c1ccccc1Cl (centres unmarked) [SCH 486757, 8-[Bis(2-Chlorophenyl)Methyl]-3-(2-Pyrimidinyl)-8-Azabicyclo-[3.2.1.]Octan-3-Ol]
Sigma (non-selective)
  Ki: 7120 nM
[1]
  effect on inspiratory electromyogram amplitude: did not significantly affect; also recorded: no significant effect
Serotonin 5-HT6
  Ki: 2350 nM
[2]; 10 mg/kg p.o.
  number of entries into the drug paired side: did not alter
[2]
  conditioned place preference (time spent in drug paired side): without effect; also recorded: did not produce any conditioned place preference; also recorded: no effect
capsaicin-induced cough; 0.1 mg/kg, p.o., 2 and 6 h
  antitussive activity at 2 and 6 h: Significant antitussive activity
capsaicin-induced cough; 1 mg/kg p.o., 5-day BID regimen, 2 h post last dose
  inhibition of capsaicin-evoked coughing, chronic dosing: 40 ± 11%
capsaicin-induced cough; 1 mg/kg p.o., single dose, 2 h post treatment
  inhibition of capsaicin-evoked coughing, acute dosing: 46 ±9%
capsaicin-induced cough; 1 mg/kg, p.o., 24 h, data not shown
  inhibition of cough at 24 h: did not inhibited cough
capsaicin-induced cough; 5-day BID dosing regimen, 1 mg/kg p.o.
  tolerance to antitussive activity: does not produce tolerance
capsaicin-induced cough; SCH 486757 3 mg/kg p.o., naltrexone 10 mg/kg p.o., 2 h
  antitussive effect in presence of naltrexone: not by naltrexone
capsaicin-induced cough; p.o., 4 h post administration
  ED50 against capsaicin-induced cough: 0.04 mg/kg
  maximum efficacy, cough suppression: 66 ± 6%
[3]; 3 mg/kg intravenous
  half-life (t1/2): 7.9 h
  mean AUC: 5.68 µM·h
[3]; 3 mg/kg p.o.
  AUC: 1.84 µM·h
  Cmax: 540 nM
  Tmax: 0.8 h
[3]; 3 mg/kg p.o. vs intravenous
  percent bioavailability (F%): 32%
[4]
  activity in remaining MDS Pharma enzyme and receptor binding assays: did not show significant affinity
[5]; 0.03 mg/kg p.o.
  AUC: 0.027 µM·h
  Tmax: 3 h
  plasma concentration during the 2- to 4-hour time period: about 2 nM
[5]; 0.03 mg/kg p.o., 0.03 mg/kg
  Cmax: 3.1 nM and 3 nM
[5]; 0.30 mg/kg p.o.
  AUC: 0.242 µM·h
  Cmax: 31 nM
  Tmax: 3 h
[6]
  Ki: 590 ± 40 nM
[7]
  tolerability, overt behavioral effects: well tolerated
Dog NOP receptor
  Ki: 5.3 ± 0.71 nM
[8]
  Ki: 14700 ± 2560 nM
Cat NOP receptor
  Ki: 6.7 ± 0.67 nM
Dopamine transporter
  Ki: 8430 nM
Guinea pig NOP receptor
  Ki: 5.4 ± 0.32 nM
[9]
  effect on blood gases or respiratory function parameters: did not affect
Dopamine D3
  Ki: 3660 nM
[10]
  AUC: 1.29 µM·h
  Cmax: 127 nM
  Tmax: 3.3 h
Rat NOP receptor
  Ki: 6.6 ± 0.15 nM
Sodium channel, site 2
  Ki: 5580 nM

## CC(N)Cc1ccccc1 (centres unmarked) [amphetamine, reference compound]
[2]
  conditioned place preference (time spent in drug paired side): induced a marked conditioned place preference; also recorded: increased the time spent on the drug paired side

## COc1ccc2c3c1O[C@H]1[C@@H](O)C=C[C@H]4[C@@H](C2)N(C)CC[C@@]341 [codeine, reference compound]
capsaicin-induced cough
  doses producing significant CNS effects (lethargy, ataxia): higher than 60 mg/kg
capsaicin-induced cough; p.o., 4 h
  antitussive efficacy compared between SCH 486757 and standards: comparable antitussive efficacies

## COc1ccc2c(c1)[C@]13CCCC[C@@H]1[C@H](C2)N(C)CC3 [dextromethorphan, reference compound]
capsaicin-induced cough
  doses producing significant CNS effects (lethargy, ataxia): > 100 mg

## CN1CC[C@]23c4c5ccc(O)c4O[C@H]2[C@@H](O)C=C[C@H]3[C@H]1C5 [morphine, reference compound]
[2]
  conditioned place preference (time spent in drug paired side): induced a marked conditioned place preference; also recorded: increased the time spent on the drug paired side

## O=C1CC[C@@]2(O)[C@H]3Cc4ccc(O)c5c4[C@@]2(CCN3CC2CC2)[C@H]1O5 [naltrexone, reference compound]
capsaicin-induced cough; J113397 12 mg/kg i.p., naltrexone 10 mg/kg p.o.
  action on capsaicin-induced cough responses, given alone: Neither naltrexone nor J113397 given alone had any actions
